The NIST ThermoML archive (doi:10.1021/je050182i)
Where “and” joins values, the source holds several entries; their conditions need not be identical. Equal values may be shown once. ± gives the expanded uncertainty stated by the source.

Conditions: Liquid

CCCCCCCCCCCCCCCCCCCCC [heneicosane]
vapor or sublimation pressure (351.54 K): 0.000396 ± 3.1e-05 kPa | vapor or sublimation pressure (361.52 K): 0.000971 ± 5.3e-05 kPa | vapor or sublimation pressure (371.42 K): 0.0022 ± 0.0001 kPa | vapor or sublimation pressure (381.65 K): 0.00498 ± 0.00021 kPa | vapor or sublimation pressure (391.86 K): 0.0106 ± 0.0004 kPa | vapor or sublimation pressure (402.05 K): 0.0213 ± 0.0009 kPa | vapor or sublimation pressure (422.19 K): 0.0751 ± 0.0031 kPa | vapor or sublimation pressure (432.27 K): 0.133 ± 0.005 kPa | vapor or sublimation pressure (442.3 K): 0.228 ± 0.009 kPa | vapor or sublimation pressure (452.22 K): 0.378 ± 0.015 kPa | vapor or sublimation pressure (461.96 K): 0.611 ± 0.025 kPa

CCCCCCCCCCCCCCCCCCCCCCCCCCC [heptacosane]
vapor or sublimation pressure (401.68 K): 0.000592 ± 3.8e-05 kPa | vapor or sublimation pressure (401.69 K): 0.00059 ± 3.8e-05 kPa | vapor or sublimation pressure (411.78 K): 0.00129 ± 7e-05 kPa | vapor or sublimation pressure (411.81 K): 0.0013 ± 7e-05 kPa | vapor or sublimation pressure (421.93 K): 0.00269 ± 0.00012 kPa | vapor or sublimation pressure (421.95 K): 0.00272 ± 0.00012 kPa | vapor or sublimation pressure (432.03 K): 0.00556 ± 0.00024 kPa | vapor or sublimation pressure (442.18 K): 0.011 ± 0.0005 kPa | vapor or sublimation pressure (452.27 K): 0.0214 ± 0.0009 kPa | vapor or sublimation pressure (462.27 K): 0.0405 ± 0.0017 kPa and 0.0401 ± 0.0016 kPa

CCCCCCCCCCCCCCCCCCCCCCCCCCCCC [nonacosane]
vapor or sublimation pressure (422.1 K): 0.00097 ± 5.3e-05 kPa and 0.000971 ± 5.3e-05 kPa | vapor or sublimation pressure (432.12 K): 0.00206 ± 0.0001 kPa | vapor or sublimation pressure (442.17 K): 0.00421 ± 0.00018 kPa | vapor or sublimation pressure (442.19 K): 0.00417 ± 0.00018 kPa | vapor or sublimation pressure (452.2 K): 0.00824 ± 0.00035 kPa | vapor or sublimation pressure (452.23 K): 0.00819 ± 0.00035 kPa

CCCCCCCCCCCCCCCCCCCCCCCCC [pentacosane]
vapor or sublimation pressure (381.69 K): 0.000331 ± 2.8e-05 kPa | vapor or sublimation pressure (391.91 K): 0.000783 ± 4.6e-05 kPa | vapor or sublimation pressure (402.03 K): 0.00178 ± 9e-05 kPa | vapor or sublimation pressure (411.75 K): 0.00383 ± 0.00017 kPa | vapor or sublimation pressure (411.78 K): 0.00383 ± 0.00017 kPa | vapor or sublimation pressure (422.02 K): 0.00802 ± 0.00034 kPa | vapor or sublimation pressure (432.21 K): 0.0158 ± 0.0007 kPa | vapor or sublimation pressure (442.33 K): 0.0296 ± 0.0012 kPa | vapor or sublimation pressure (442.34 K): 0.0299 ± 0.0012 kPa | vapor or sublimation pressure (452.24 K): 0.0541 ± 0.0022 kPa | vapor or sublimation pressure (452.25 K): 0.0534 ± 0.0022 kPa | vapor or sublimation pressure (461.95 K): 0.0926 ± 0.0038 kPa | vapor or sublimation pressure (461.98 K): 0.0923 ± 0.0038 kPa and 0.0938 ± 0.0038 kPa

CCCCCCCCCCCCCCCCCCCCCCCCCCCCCC [triacontane]
vapor or sublimation pressure (432.36 K): 0.00115 ± 6e-05 kPa | vapor or sublimation pressure (432.37 K): 0.00113 ± 6e-05 kPa | vapor or sublimation pressure (442.48 K): 0.00233 ± 0.00011 kPa | vapor or sublimation pressure (452.32 K): 0.00457 ± 0.0002 kPa | vapor or sublimation pressure (452.34 K): 0.00451 ± 0.0002 kPa

CCCCCCCCCCCCCCCCCCCCCCC [tricosane]
vapor or sublimation pressure (412.18 K): 0.0129 ± 0.0005 kPa | vapor or sublimation pressure (422.26 K): 0.0248 ± 0.001 kPa | vapor or sublimation pressure (422.29 K): 0.0247 ± 0.001 kPa | vapor or sublimation pressure (432.34 K): 0.0461 ± 0.0019 kPa | vapor or sublimation pressure (442.33 K): 0.0839 ± 0.0034 kPa | vapor or sublimation pressure (452.22 K): 0.143 ± 0.006 kPa | vapor or sublimation pressure (461.99 K): 0.242 ± 0.01 kPa
